Assay [1] relates to GST-LC3A. As to the kind of experiment: GST pull-down with GST-LC3A. It is filed as binding, human. The following applies: Fig. 1b, triplicates. As to the method:
(§1) GST fusions of various proteins (pGEX plasmids) were expressed in BL21 E. coli. Fusion protein expression was induced by adding 0.5 mM IPTG for 4 hrs. Bacteria were lysed in 20 mM Tris-HCl, pH 7.5, 10 mM EDTA, pH 8.0, 5 mM EGTA, 150 mM NaCl supplemented with 2 mg/ml lysozyme. GST fusion proteins were subsequently bound to pre-washed Glutathione-Sepharose 4B beads (GE Healthcare). After several washes, fusion protein-bound beads were used directly in binding assays.
(§2) HEK293 or HeLa cells were transfected with expression constructs encoding the protein of interest using JetPRIME (Polyplus Transfection). 24 hrs post-transfection cells were lysed in 50 mM HEPES, pH 7.5, 150 mM NaCl, 1 mM EDTA pH 8.0, 1 mM EGTA, 10% glycerol, 1% Triton X-100, 25 mM NaF, […] and lysates were incubated for 4 hrs with immobilized GST-fusion proteins at 4 °C. Following 5 washes, beads with co-precipitated proteins were resuspended in 2x SDS-PAGE loading buffer, boiled and loaded onto 10% or 12% SDS-PAGE gels for analysis. All GST pull-down experiments were performed in triplicates.

Assay [2] deals with GST-LC3B. As to the kind of experiment: GST pull-down with GST-LC3B wild type. The class given is binding, human. The following applies: for interaction with GST-LC3B: Fig. 1b, triplicates; for interaction with GST-LC3B wild type: Flag-Nix in cell lysate, Fig. 3a. How it is done:
as §1, §2

In assay [3] the test system is HeLa cells (recruitment of LC3B to mitochondria). Nature of the assay: LC3B positive vesicles per 100 cells, immunofluorescence microscopy. It is filed as cell-based. Particulars: 10 µM CCCP for 2 hours, vs wild type and S34,35A, three independent experiments, Fig. 3b. As to the method:
(§3) HeLa cells were seeded, grown on coverslips or 8-well microscopy slides (ibidi) and transfected with either wild type or mutant Nix or Bnip3 together with wild type or mutant LC3B constructs using JetPRIME transfection reagent according to manufacturer’s instructions. 24 hrs post transfection cells were fixed in 2% or 4% paraformaldehyde and permeabilized with 0,1% Triton X-100 solution. Cells were blocked in 5% BSA/PBS/0.1% Triton X-100 for 1 hr at room temperature or 4 °C overnight. Primary and secondary antibodies were diluted in blocking solution and washed in 0,1% Triton X-100/PBS. Coverslips were mounted in Prolong mounting media (Invitrogen). Cells in 8-well microscopy slides were placed in PBS following staining. Cells were imaged using a Zeiss AxioVision or DeltaVision RT microscope system (Applied Precision). Quantification of Nix-LC3B colocalization was performed as follows: for each Nix construct, LC3B positive dots (signals) were numbered in 100 cells. Only clear and well-defined LC3B signals are taken into consideration, while weak and oversized signals were excluded from the analysis.

Assay [4] concerns GFP-LC3B K51A. Nature of the assay: Co-immunoprecipitation with GFP-LC3B K51A. It is filed as binding, human. The following applies: α-GFP IP, Western blot. As to the method:
(§4) Cells were scraped, centrifuged at 500 g for 5 min, and lysed in 150 µL CHAPS lysis buffer (2% CHAPS, 1% Triton X-100, 137 mM NaCl, 2 mM EDTA, 10% glycerol, and 20 mM Tris-HCl, pH 8.0) containing protease and phosphatase inhibitors. 5 µL of total lysate was kept as Input sample and 145 µL of cell lysate was incubated with 12.5 µL α-GFP (1:40, Roche)-coupled Dynabeads Protein G (purchased from Invitrogen) for 2 hrs at 4 °C. This step was followed by three washing steps using 0.02% Tween-20/PBS and immunoprecipitated proteins were eluted from Dynabeads by adding 4X LDS buffer (purchased from Invitrogen) and 10X sample reducing agent (purchased from Invitrogen) to the beads. Heating at 70 °C for 10 min will denaturized the proteins to analyze them by Western blotting.
A general note: A western blot detects proteins with antibodies after separation by electrophoresis.

Assay [5] deals with EGFP-LC3B K49A. As to the kind of experiment: Co-immunoprecipitation with EGFP-LC3B K49A. The class given is binding, human. The following applies: Figs S3 and S7; vs wild type LC3B. How it is done:
as §4

The test system of assay [6] is GFP-LC3B wild type. Nature of the assay: Co-immunoprecipitation with GFP-LC3B wild type. The class given is binding, human. The following applies: α-GFP IP, Western blot. How it is done:
as §4

The subject of assay [7] is GST-LC3B K49A. Nature of the assay: GST pull-down with GST-LC3B K49A. The class given is binding, human. Particulars: Fig. 3a, vs wild type LC3B. How it is done:
as §1, §2

Assay [8] has as its system HeLa cells expressing GFP-LC3B wild type. As to the kind of experiment: Colocalization / sequestration of mitochondria with GFP-LC3B wild type, fluorescence microscopy. It is filed as cell-based. Particulars: Fig. 4a. As to the method:
as §3
HeLa cells were plated in 8-well microscopy µ-slides (ibidi) were transfected GFP-LC3 and RFP-Nix WT, S34,35A or S34,35E. From Z-stacks, single cells were cropped for analysis by ImageJ. Binary masks for each slice within ≥10 representative Z-stacks per condition of (i) Nix-labeled mitochondria and (ii) GFP-LC3 were generated by image segmentation. Slice-by-slice co-localization of mitochondrial and AV masks were calculated using the Boolean AND function. All slices for each binary stack were summed, and the ratio of area calculated from mitochondrialy-localized AV over total mitochondria content is reported as a cellular fraction.

Assay [9] has as its system HEK293 cells (mitochondrial loss). Nature of the assay: Mitochondrial removal by flow cytometry. The class given is cell-based. The following applies: HEK293, GFP-Nix, 10 μM CCCP 24 hours; vs wild type. As to the method: HEK293 cells were transfected with GFP expression constructs encoding the protein of interest using JetPRIME (Polyplus Transfection). 24 hrs post-transfection cells were treated with 10 µM CCCP for 24 hrs. After treatment, cells were washed with PBS, trypsinized with trypsin for 5 min and resuspended by gentle pipetting. Trypsin-mediated digestion was arrested by the addition of DMEM supplemented with 10% FBS and cells were centrifuged at 500 g for 5 min. To remove cell clumps, cells were resuspended in PBS and filtered through the 70 µm Cell Strainer (BD Falcon). Approximately 10^6 cells were acquired for further flow cytometry analysis. Before fixation, cells were washed twice with FACS buffer (2% FBS, 0,02% NaN3 in PBS) and each time centrifuged at 500 g for 5 min. Cells were fixed with freshly prepared 4% paraformaldehyde for 10 min at room temperature, washed twice with FACS buffer and finally resuspended in […] prior to analysis. […] The acquired data were gated for singlets by generating FSC-A vs FSC-H plot after which dead cells were excluded and the mean fluorescence in FL1 channel was collected. The mean fluorescence of the CCCP and CCCP/Baf treated samples was compared with the untreated control and the results were expressed as a percentage of the retained mitochondria of at least two independent experiments. Results were analyzed using FlowLogic software.
(In general: Flow cytometry measures light scatter and fluorescence of single cells or particles in a stream.)

Assay [10] has as its target T1, LC3B wild type (Homo sapiens, UniProt Q9GZQ8).
T1 construct: Ub3 (ubiquitin fusion) (N); made in house
Nature of the assay: Isothermal titration calorimetry (ITC), LC3B wild type. The class given is binding. In general terms: ITC needs no label: the signal is the heat of the interaction.
Procedure: (§5) Before the experiment, the proteins and peptides were equilibrated with a buffer containing 40 mM Na2HPO4, 80 mM NaCl at pH 7.0, and supplied with 5 mM protease inhibitors cocktail.
(§6) All titration experiments were performed at 25 °C using a VP-ITC microcalorimeter (MicroCal Inc., MA, USA). The ITC-data were analyzed with the ITC-Origin 7.0 software with a “one-site” binding model. The peptides at concentrations of 0.31 mM were titrated into 0.018 mM LC3B proteins in 25 steps. The proteins and peptides concentrations were calculated from the UV-absorption at 280 nm by Nanodrop spectrophotometer (Thermo Fisher Scientific, DE, USA).

Assay [11] concerns the target T2, LC3B K49A (Homo sapiens, UniProt Q9GZQ8, K49A).
T2 construct: Ub3 (ubiquitin fusion) (N); made in house
As to the kind of experiment: ITC, LC3B K49A mutant. It is filed as binding.
Procedure: as §5, §6

The test system of assay [12] is HeLa cells expressing GFP-LC3B K51A. Nature of the assay: Colocalization with GFP-LC3B K51A, fluorescence microscopy. The class given is cell-based. The following applies: Fig. 4d,e. As to the method: as §3, with “Only clear and well-defined LC3B signals are taken into consideration, while weak and oversized signals were excluded from the analysis.” left out
HeLa cells were plated in 8-well microscopy µ-slides (ibidi) were transfected GFP-LC3 and RFP-Nix WT, S34,35A or S34,35E. […] Slice-by-slice co-localization of mitochondrial and AV masks were calculated using the Boolean AND function. All slices for each binary stack were summed, and the ratio of area calculated from mitochondrialy-localized AV over total mitochondria content is reported as a cellular fraction.

In assay [13] the test system is EGFP-LC3B R11A. Nature of the assay: Co-immunoprecipitation with EGFP-LC3B R11A. It is filed as binding, human. The following applies: α-GFP IP, 24 hrs post transfection, Fig. S5a. How it is done: as §4
Assay [14] has as its system EGFP-LC3B R10A. Nature of the assay: Co-immunoprecipitation with EGFP-LC3B R10A. It is filed as binding, human. The following applies: α-GFP IP, 24 hrs post transfection, Fig. S5a. How it is done:
as §4

Assay [15] deals with GST-LC3B. Particulars: ref [17]; cited from earlier work. How it is done:
Recently, it was determined that phosphorylation of serine residues juxtaposed to the LIR motif is responsible for the activation of receptor functions for Optn and Bnip3[5],[14]. […] Therefore, we mutated Ser34 and Ser35 in Nix to alanine, glutamic acid or aspartic acid re ...

Assay [16] has as its system cells expressing LC3B K49A. Nature of the assay: Colocalization with LC3B K49A, fluorescence microscopy. The class given is cell-based. The following applies: vs wild type LC3B. As to the method: as §3

Consider “Nix S35E: single phosphomimetic Nix mutant”, for which the “interaction with GST-LC3A” value in [1] is reported as “stronger than wild type Nix but weaker than the double serine phosphomimetic S34,35D Nix mutant”. Besides, the “interaction with GST-LC3B” value in assay [2] was “stronger than wild type Nix but weaker than the double serine phosphomimetic S34,35D Nix mutant”.
For “Nix S34,35D: phosphomimetic Nix double mutant”, the “recruitment of LC3B-positive vesicles” value in assay [3] was “increased recruitment of LC3B-positive vesicles compared to wild type and S34,35A”.
On to “Bnip3 wild type: mitophagy receptor Bnip3, homolog of Nix [reference compound]”, for which the “co-immunoprecipitation with GFP-LC3B K51A” value in assay [4] is “does not”. The “affinity to LC3B K49A (in words)” value in assay [5] is given as “increased affinity”.
Turning to “Bnip3S17,24E: Bnip3 S17,24E mutant [reference compound]”, the “co-immunoprecipitation with GFP-LC3B wild type” value in assay [6] is “strongly bound”. In assay [4], the “co-immunoprecipitation with GFP-LC3B K51A” value is “absent”.
For “Nix S34,35A: Nix with serine-to-alanine mutations to disable phosphorylation”, the “interaction with GST-LC3B wild type” value in assay [2] is recorded as “did not interact”. In assay [7], the “interaction with GST-LC3B K49A” value was “strongly increased binding”. For the same substance, the results for the “targeting of mitochondria to LC3B autophagosomes / colocalization with GFP-LC3B” value in [8] and in assay [8] (listed as RFP-Nix S34,35A) were “lack of such a recruitment” and “does not colocalize”, respectively. Besides, in assay [6], the “co-immunoprecipitation with GFP-LC3B wild type” value is “no interaction”. Besides, in assay [9], the “mitochondrial loss (fraction of removed mitochondria), in words” value is given as “slightly reduced compared to wild type”.
For “Nix S34E: single phosphomimetic Nix mutant”, in assay [1], the “interaction with GST-LC3A” value is given as “stronger than wild type Nix but weaker than the double serine phosphomimetic S34,35D Nix mutant”. Moreover, the “interaction with GST-LC3B” value in assay [2] is “stronger than wild type Nix but weaker than the double serine phosphomimetic S34,35D Nix mutant”.
On to “SQQGGWGTVFSLESEE [arbitrary LIR-similar peptide, residues 196–210 of the human protein BCL2L13 - analog of the yeast Atg32 protein]”, for which the “affinity to wild type LC3B (in words)” value in assay [10] is on record as “weak”. For the same substance, the “affinity to LC3B K49A (in words)” value in assay [11] was “weak”.
Turning to “Nix wild type: mitophagy receptor Nix, wild type, expressed in cells”, the “interaction with GST-LC3B” value in assay [2] is “considerably weaker than with LC3A”. Besides, the “interaction with GST-LC3B K49A” value in [7] (listed as Nix) is recorded as “increased affinity”; in assay [7] (listed as wild type Nix), “strongly increased binding”. In addition, the “targeting of mitochondria to LC3B autophagosomes / colocalization with GFP-LC3B” value in assay [8] was “shows colocalization”. In addition, the “colocalization with GFP-LC3B K51A” value in assay [12] is given as “does not colocalize”. The “co-immunoprecipitation with GFP-LC3B wild type” value in assay [6] was “no interaction”. The “co-immunoprecipitation with GFP-LC3B K51A” value in [4] is “fails to coimmunoprecipitate”. Moreover, the “co-immunoprecipitation with LC3B R11A” value in assay [13] is given as “do not coimmunoprecipitate”. For the same substance, the “co-immunoprecipitation with LC3B R10A” value in [14] is given as “do not coimmunoprecipitate”. Besides, the “interaction rank of LC3B among Nix partners” value in [15] is “weakest”.
Take “Nix S34,35E: phosphomimetic Nix double mutant”: the “interaction with GST-LC3B wild type” value in [2] is recorded as “robustly bound”. The “recruitment of LC3B-positive vesicles” value in [3] is “increased recruitment of LC3B-positive vesicles compared to wild type and S34,35A”. Besides, the “targeting of mitochondria to LC3B autophagosomes / colocalization with GFP-LC3B” value is given as “enhanced targeting of mitochondria to LC3B autophagosomes relative to wild type Nix” in [8] and “enhanced colocalization” in assay [8] (listed as S34,35E). In assay [12], the “colocalization with GFP-LC3B K51A” value is “loss of cellular colocalization”. The “colocalization with LC3B K49A” value in assay [16] is “increased”. Besides, the “co-immunoprecipitation with GFP-LC3B wild type” value in [6] was “strong interaction”. For the same substance, in assay [4], the “co-immunoprecipitation with GFP-LC3B K51A” value was “unable to immunoprecipitate”. Further, in assay [9], the “mitochondrial loss (fraction of removed mitochondria), in words” value was “more rapid”.

These data come from paper PMC5430633, “Phosphorylation of the mitochondrial autophagy receptor Nix enhances its interaction with LC3 proteins” (Scientific Reports, 2017).
